Measured values reported in patent US20230129258A1, “HETEROTANDEM BICYCLIC PEPTIDE COMPLEXES” (BicycleTx Limited, priority 2019, published 2023).
Like-named read-outs stand apart in the source and are kept apart here.

Experiments:
MC38 #13 tumors = assay: Anti-tumor activity in syngeneic Nectin-4 overexpressing MC38 tumor model (MC38 #13); assay type: in vivo, C57BL/6J-hCD137 mice; conditions: for complete tumor responses: day 15; for complete responders: day 52, IV
Experimental: 6-8 weeks old C57BL/6J-hCD137 female mice were inoculated in the flank with 1×10^6 syngeneic Nectin-4 overexpressing MC38 cells (MC38 #13). When tumors reached 72 mm^3 size on average, mice were randomized to receive vehicle or BCY11863 (intraperitoneal administration). BCY11863 was administered (n=6 mice/treatment cohort) at either 1 mg/kg or 10 mg/kg either daily (QD) or every three days (Q3D). QD dosed mice received 16 doses of BCY11863 and Q3D dosed mice received […] of BCY11863. Tumor growth was monitored by caliper measurements until day 69 after treatment initiation. […] By day 48, 22 out of 24 BCY11863-treated animals had responded to the treatment completely and had no palpable tumors remaining.
6-8 week old female C57BL/6J-hCD137 mice [B-hTNFRSF9(CD137) mice; Biocytogen] were implanted subcutaneously with 1×10^6 MC38 #13 (MC38 cells engineered to overexpress murine Nectin-4) cells. Mice were randomized into treatment groups (n=6/cohort) when average tumor volumes reached around 95 mm^3 and were treated with a weekly dose of vehicle (25 mM histidine, 10% sucrose, pH7) or 10 mg/kg BCY11863 with two different dosing schedules for two dosing cycles (5 mg/kg BCY11863 at 0 h and 24 h on DO and D7, or 10 mg/kg at 0 h on DO and D7). All treatments were administered intravenously (IV). Tumor growth was monitored until Day 15 from treatment initiation.
At 3 weekly doses of 3, 10 and 30 mg/kg with dose fractionated weekly, biweekly and daily 6-8 week old female C57BL/6J-hCD137 mice [B-hTNFRSF9(CD137) mice; Biocytogen] were implanted subcutaneously with 1×10^6 MC38 #13 (MC38 cells engineered to overexpress murine Nectin-4) cells. Mice were randomized into treatment groups (n=6/cohort) when average tumor volumes reached around 107 mm^3 and were treated with 21 daily doses of vehicle (25 mM histidine, 10% sucrose, pH7). BCY11863 treatment was done at three different total dose levels (3, 10 and 30 mg/kg total weekly dose) fractionated in three different schedules (QD: daily; BIW: twice a week or QW: weekly). Different BCY11863 treatment cohorts received either 21 daily doses (0.43, 1.4 or 4.3 mg/kg), 6 twice weekly doses (1.5, 5 or 15 mg/kg) or 3 weekly doses (3, 10 or 30 mg/kg). All treatments were administered intravenously (IV). Tumor growth was monitored until tumor reached volumes over 2000 mm^3 or until 31 days after treatment initiation. Complete responders (animals with no palpable tumors) were followed until D52.

[1] = system: CT26 #7 tumor tissue T cells; assay: Flow cytometry of T cells in CT26 #7 tumor tissue 1 h after last Q3D dose; assay type: in vivo, BALB/c-hCD137 mice; conditions: 5 mg/kg ip Q3D, 1 h after 6th dose
Experimental: 1 hour after the last vehicle or BCY11863 dose the […] bearing mice were sacrificed and tumors were harvested, processed for single cell suspensions and stained for flow cytometry analysis for total T cells (CD45+CD3+), CD8+ T cells (CD45+CD3+CD8+), CD4+ T cells (CD45+CD3+CD4+) and regulatory T cells (Tregs; CD45+CD3+CD4+Foxp3+).

human PBMCs = assay: Human PBMC-tumor cell co-culture (cytokine stimulation) assay with Nectin-4-expressing tumor cells; assay type: cell-based
Experimental: Tumor cell lines were cultured according to suppliers recommended protocol. Frozen PBMCs from healthy human donors were thawed and washed one time in room temperature PBS, and then resuspended in R10 medium. 100 μl of PBMCs (1,000,000 PBMCs/ml) and 100 μl of tumor cells (100,000 tumor cells/ml) (Effector:Target cell ratio (E:T) 10:1) were plated in each well of a 96 well flat bottom plate for the co-culture assay. 100 ng/ml of soluble anti-CD3 mAb (clone OKT3) was added to the culture on day 0 to stimulate human PBMCs. Test, control compounds, or vehicle controls were diluted in R10 media and 50 μL was added to respective wells to bring the final volume per well to 250 μL. Plates were covered with a breathable film and incubated in a humidified chamber at 37° C. with 5% CO2 for […]. Supernatants were collected 48 hours after stimulation, and human IL-2 and IFN-γ were detected by Luminex. Briefly, the standards and samples were added to black 96 well plate. Microparticle cocktail (provided in Luminex kit, R&D Systems) was added and shaken for 2 hours at room temperature. The plate was washed 3 times using magnetic holder. Biotin cocktail was then added to the plate and shaken for 1 hour at RT. The plate was washed 3 times using magnetic holder. Streptavidin cocktail was added to the plate and shaken for 30 minutes at RT. The plates were washed 3 times using magnetic holder, resuspended in 100 μL of wash buffer, shaken for 2 minutes at RT, and read using the Luminex 2000. Raw data were analyzed using built-in Luminex software to generate standard curves and interpolate protein concentrations, all other data analyses and graphing were performed using Excel and Prism software. […]

**Q.** `CCCC[C@@H]1NC(=O)[C@H](Cc2ccc(O)cc2)NC(=O)[C@@H]2CCCN2C(=O)[C@H](CC(=O)O)NC(=O)[C@H](C)NC(=O)[C@H](Cc2ccccc2)NC(=O)[C@@H]2CSCCC(=O)N3CN(CN(C3)C(=O)CCSC[C@@H](C(=O)N[C@@H](C)C(N)=O)NC1=O)C(=O)CCSC[C@H](NC(C)=O)C(=O)N[C@@H](CC(C)(C)C)C(=O)N1CCC[C@H]1C(=O)N[C@@H](CCC(=O)O)C(=O)N[C@H](CCCCNC(=O)CCc1cn(CCOCCOCCOCCN(CCOCCOCCOCCC(=O)N[C@H]3CSCCC(=O)N4CN5CN(C4)C(=O)CCSC[C@H](NC(=O)[C@@H](CC(=O)O)NC(=O)[C@H](Cc4cccc6ccccc46)NC(=O)[C@@H]4CCCN4C3=O)C(=O)N[C@@H](CCSC)C(=O)N[C@@H](CCCCNC(=N)N)C(=O)N[C@@H](CC(=O)O)C(=O)N[C@@H](Cc3c[nH]c4ccccc34)C(=O)N[C@@H](CO)C(=O)N[C@@H]([C@@H](C)O)C(=O)N3CCC[C@H]3C(=O)N3C[C@H](O)C[C@H]3C(=O)N[C@@H](Cc3c[nH]c4ccccc34)C(=O)N[C@H](C(N)=O)CSCCC5=O)CCOCCOCCOCCn3cc(CCC(=O)NCCCC[C@H]4NC(=O)[C@H](CCC(=O)O)NC(=O)[C@@H]5CCCN5C(=O)[C@H](CC(C)(C)C)NC(=O)[C@@H](NC(C)=O)CSCCC(=O)N5CN6CN(C5)C(=O)CCSC[C@H](NC(=O)[C@H](Cc5ccc(O)cc5)NC(=O)[C@@H]5CCCN5C4=O)C(=O)N[C@@H](Cc4ccccc4)C(=O)N[C@@H](C)C(=O)N[C@@H](CC(=O)O)C(=O)N4CCC[C@H]4C(=O)N[C@@H](Cc4ccc(O)cc4)C(=O)N[C@@H](CCCC)C(=O)N[C@H](C(=O)N[C@@H](C)C(N)=O)CSCCC6=O)nn3)nn1)C(=O)N1CCC[C@H]1C(=O)N[C@@H](Cc1ccc(O)cc1)C(=O)N2` [BCY11863] was tested. Which tumor growth (MC38 #13 tumors; 1 or 10 mg/kg, QD or Q3D, ip, p<0.05 vs vehicle, 2 cohorts by day 7, all by day 14) did it give?
**A.** significant reduction

**Q.** What about the “animals responded completely, no palpable tumors” value (MC38 #13 tumors; by day 48, all cohorts, 1 or 10 mg/kg, QD or Q3D, ip) of the same compound?
**A.** 22 out of 24

**Q.** What about the complete tumor responses (MC38 #13 tumors; 5 mg/kg at 0 h and 24 h on D0 and D7, IV) of the same compound?
**A.** 4 out of 6

**Q.** What about the complete tumor responses (MC38 #13 tumors; 10 mg/kg at 0 h on D0 and D7, IV) of the same compound?
**A.** one out of 6

**Q.** And the complete responders (MC38 #13 tumors; 5 mg/kg BIW)?
**A.** 6/6

**Q.** What about the complete responders (MC38 #13 tumors; BIW (1.5, 5 or 15 mg/kg)) of the same compound?
**A.** 15/18

**Q.** And the complete responders (MC38 #13 tumors; QD (0.43, 1.4 or 4.3 mg/kg))?
**A.** 12/18

**Q.** What about the complete responders (MC38 #13 tumors; QW (3, 10 or 30 mg/kg)) of the same compound?
**A.** 6/18

**Q.** And the “CD8+ T cells in tumor” value ([1]; p<0.0001)?
**A.** significant increase

**Q.** And the “total T cells (CD45+CD3+) in tumor” value ([1]; p<0.0001)?
**A.** significant increase

**Q.** And the “CD8+ T cell/Treg ratio in tumor” value ([1]; p<0.05)?
**A.** significant increase

**Q.** And the EC50 (human PBMCs; 4T1-D02 (mouse), 4 donors, read-out: IFNy (nM), EC50 of cytokine secretion)?
**A.** 0.04 ± 0.04 nM

**Q.** And the EC50 (human PBMCs; 4T1-D02 (mouse), 4 donors, read-out: IL-2 (nM), EC50 of cytokine secretion)?
**A.** 0.16 ± 0.22 nM

**Q.** And the EC50 (human PBMCs; 4T1-Parental (Nectin4-), read-out: IFNy (nM), EC50 of cytokine secretion)?
**A.** > 100 nM

**Q.** And the EC50 (human PBMCs; 4T1-Parental (Nectin4-), read-out: IL-2 (nM), EC50 of cytokine secretion)?
**A.** > 100 nM

**Q.** What about the EC50 (human PBMCs; H322 (human), 3 donors, read-out: IFNy (nM), EC50 of cytokine secretion) of the same compound?
**A.** 0.85 ± 0.66 nM

**Q.** And the EC50 (human PBMCs; H322 (human), 3 donors, read-out: IL-2 (nM), EC50 of cytokine secretion)?
**A.** 0.84 ± 0.15 nM

**Q.** What about the EC50 (human PBMCs; HT1376 (human), 5 donors, read-out: IFNy (nM), EC50 of cytokine secretion) of the same compound?
**A.** 0.23 ± 0.15 nM

**Q.** What about the EC50 (human PBMCs; HT1376 (human), 5 donors, read-out: IL-2 (nM), EC50 of cytokine secretion) of the same compound?
**A.** 0.39 ± 0.29 nM

**Q.** What about the EC50 (human PBMCs; MC38 #13 (mouse), 4 donors, read-out: IFNy (nM), EC50 of cytokine secretion) of the same compound?
**A.** 0.17 ± 0.11 nM

**Q.** What about the EC50 (human PBMCs; MC38 #13 (mouse), 4 donors, read-out: IL-2 (nM), EC50 of cytokine secretion) of the same compound?
**A.** 0.25 ± 0.08 nM

**Q.** And the “IL-2 and IFN-γ cytokine secretion” value (human PBMCs; PBMC-4T1 (Nectin-4 engineered) co-culture, FIGS. 2A, 2B)?
**A.** induces robust IL-2 and IFN-γ cytokine secretion

**Q.** And the EC50 (human PBMCs; T-47D (human), 3 donors, read-out: IFNy (nM), EC50 of cytokine secretion)?
**A.** 0.08 ± 0.06 nM

**Q.** What about the EC50 (human PBMCs; T-47D (human), 3 donors, read-out: IL-2 (nM), EC50 of cytokine secretion) of the same compound?
**A.** 0.2 ± 0.07 nM
